# Results as given in US8207224B2, “Preservatives based on carboxylic anhydrides” (LANXESS Deutchland GmbH, priority 2006, dated 2012).
# Several values for one entry are separate records, joined by “and”; a condition that tells them apart may be missing. Identical values can stand only once.
# What was measured:
# Format in all cases: cell-based
# Saccharomyces cerevisiae = test: Sterilization test in contaminated apple juice against Saccharomyces cerevisiae; conditions: for Germ number after 24 h (carried out in duplicate): contact time 24 hours at 20° C. As to Visual evaluation after 4 weeks: key: − = not fermented; + = fermented.
# Experimental: (§1) Soft drinks were contaminated with the respective stated microorganisms. The active compound concentration required for disinfecting the beverages was determined by sterilization tests.
# (§2) Nutrient Media: Yeast orange serum agar (from Oxoid CM657)
# (§3) Substances: The substances used were employed neat or as ethanolic or butanolic solutions (for example 2.0% by volume) or suspensions. Dimethyl dicarbonate, Na benzoate, K sorbate, sorbic anhydride and benzoic anhydride were synthesized by known methods or were commercially available. The respective solutions were in each case freshly prepared (alcoholysis). Apparatus: 50 ml tissue culture flasks from Greiner, gauze compresses from Holthans, Thoma counting chamber from Brand.
# (§4) As a matter of principle, sterile reagents and apparatus were used. In addition to sterile disposable articles, the required apparatus and reagents were sterilized by suitable measures before use. Sterilization measures were heat treatment in a drying cabinet (at least 8 hours at about 120° C.) or in an autoclave (at least 15 minutes at about 120° C.).
# (§5) Before the test was carried out, the beverage substrates were filled into tissue culture flasks. In general, the amount of beverage was 40 ml. Filling was carried out under sterile conditions. At this point in time, it was also possible for the persistent preservatives to be introduced.
# (§6) The cultures, which were grown under optimum conditions (in tissue culture flasks from Greiner; 50 ml, 25 cm^2 or in oblique agar tubes), were wetted with up to 30 ml (depending on the test germ) of NaCl solution (if appropriate with addition of about 3 drops of Tween 80), rinsed off or, using glass beads (depending on the germ), scrubbed off intensively and, if required, filtered. Alternatively, it was also possible to employ fluid cultures. Using a microscope and a Thoma chamber, it was possible to carry out a preliminary determination of the germ number. An accurate determination of the germ number of the germ solution used was carried out using the Koch inoculation plate method.
# (§7) Depending on the given germ seed (for example 50-500 germs/ml of substrate), the appropriate volume of germ solution (original or dilution) were added and the sample was shaken intensively.
# (§8) The doses of active compound, added as pure substance or as appropriate alcoholic solution or suspension in the case of dimethyl dicarbonate and the carboxylic anhydrides, were then added. For a period of about 20 seconds, the samples were immediately shaken intensively.
# (§9) The beverage samples were stored at a cultivation temperature of 26° C.±2° C.
# (§10) In the case of formerly clear beverages, clouding indicates contamination. In the case of cloudy fruit pulp-containing beverages, visual evaluation was not always possible. Accordingly, in these cases evaluation was carried out as a germ number determination in agar.
# The tests were carried out as stated in Example 1.
# [1] = tested on: Mixture of different problem yeasts from a beverage filling unit; test: Sterilization test in contaminated apple juice against yeast mix; conditions: germ seed 56.000 cfu/ml; as to Visual evaluation after 4 weeks: key: − = not fermented; + = fermented
# Experimental: as §1, §2, §3, §4, §5, §6, §7, §8, §9, §10
# The tests were carried out as Stated in Example 1.
# [2] = tested on: Mixture of different problem yeasts from a beverage filling unit; test: as above; conditions: contact time 24 hours at 20° C., germ seed 56.000 cfu/ml; as to Visual evaluation after 4 weeks: key: − = not fermented; + = fermented
# [3] = 100 mg/l, pH 3.5, apple juice, germ seed 56 000 cfu/ml
# [4] = 150 mg/l, pH 3.5, apple juice, germ seed 56 000 cfu/ml
# [5] = 150 mg/l, pH 6.0, apple juice, germ seed 56 000 cfu/ml
# [6] = 250 mg/l, pH 3.5, apple juice, germ seed 56 000 cfu/ml
# [7] = 250 mg/l, pH 6.0, apple juice, germ seed 56 000 cfu/ml
# [8] = Table 2: 250 mg/l, apple juice, germ seed 56.000 cfu/ml
# [9] = 177 mg/l, pH 3.5, apple juice, germ seed 56 000 cfu/ml
# [10] = 177 mg/l, pH 6.0, apple juice, germ seed 56 000 cfu/ml
# [11] = Table 2: 177 mg/l, apple juice, germ seed 56.000 cfu/ml
# [12] = Table 2: 50 mg/l, apple juice, germ seed 56.000 cfu/ml
# [13] = Table 2: 100 mg/l, apple juice, germ seed 56.000 cfu/ml
compound,measurement,setting,value
"O=C(OC(=O)c1ccccc1)c1ccccc1 [Benzoic anhydride, benzoic anhydride]",Germ number after 24 h (carried out in duplicate),Saccharomyces cerevisiae; [3],<10
same,Visual evaluation after 4 weeks,Saccharomyces cerevisiae; [3],−
same,Visual evaluation after 4 weeks,"Saccharomyces cerevisiae; 100 mg/l, pH 6.0, apple juice, germ seed 56 000 cfu/ml",+
same,Germ number after 24 h (carried out in duplicate),Saccharomyces cerevisiae; [4],<10
same,Visual evaluation after 4 weeks,Saccharomyces cerevisiae; [4],−
same,Germ number after 24 h (carried out in duplicate),Saccharomyces cerevisiae; [5],about 10
same,Visual evaluation after 4 weeks,Saccharomyces cerevisiae; [5],+
same,Germ number after 24 h (carried out in duplicate),Saccharomyces cerevisiae; [6],<10
same,Visual evaluation after 4 weeks,Saccharomyces cerevisiae; [6],−
same,Germ number after 24 h (carried out in duplicate),Saccharomyces cerevisiae; [7],<10
same,Visual evaluation after 4 weeks,Saccharomyces cerevisiae; [7],−
"COC(=O)OC(=O)OC [Dimethyl dicarbonate, reference compound]",Visual evaluation after 4 weeks,Saccharomyces cerevisiae; [6],+
same,Visual evaluation after 4 weeks,Saccharomyces cerevisiae; [7],+
same,Germ number after 24 h (carried out in duplicate),Saccharomyces cerevisiae; [8],<10
same,Visual evaluation after 4 weeks,Saccharomyces cerevisiae; [8],+
same,Germ number after 24 h (carried out in duplicate),"[1]; 250 mg/l, contact time 24 hours at 20° C.",6.8 × 10^6 and 5.7 × 10^6
same,Visual evaluation after 4 weeks,[1]; 250 mg/l,+
"O=C([O-])c1ccccc1.[Na+] [Na benzoate, Sodium benzoate, reference compound]",Germ number after 24 h (carried out in duplicate),Saccharomyces cerevisiae; [9],6.8 × 10^5 and 5.3 × 10^5
same,Visual evaluation after 4 weeks,Saccharomyces cerevisiae; [9],+
same,Germ number after 24 h (carried out in duplicate),Saccharomyces cerevisiae; [10],2.6 × 10^6 and 2.2 × 10^6
same,Visual evaluation after 4 weeks,Saccharomyces cerevisiae; [10],+
same,Germ number after 24 h (carried out in duplicate),Saccharomyces cerevisiae; [11],1.3 × 10^5 and 1.1 × 10^5
same,Visual evaluation after 4 weeks,Saccharomyces cerevisiae; [11],+
same,Germ number after 24 h (carried out in duplicate),[2]; 177 mg/l,1.3 × 10^5 and 1.1 × 10^5
same,Visual evaluation after 4 weeks,[1]; 177 mg/l,+
"C/C=C/C=C/C(=O)OC(=O)/C=C/C=C/C [Sorbic anhydride, sorbic anhydride]",Germ number after 24 h (carried out in duplicate),Saccharomyces cerevisiae; [12],<10
same,Visual evaluation after 4 weeks,Saccharomyces cerevisiae; [12],−
same,Germ number after 24 h (carried out in duplicate),Saccharomyces cerevisiae; [13],<10
same,Visual evaluation after 4 weeks,Saccharomyces cerevisiae; [13],−
same,Germ number after 24 h (carried out in duplicate),Saccharomyces cerevisiae; [8],<10
same,Visual evaluation after 4 weeks,Saccharomyces cerevisiae; [8],−
same,Germ number after 24 h (carried out in duplicate),[2]; 50 mg/l,2.6 × 10^5 and 1.8 × 10^5
same,Germ number after 24 h (carried out in duplicate),[2]; 100 mg/l,9.2 × 10^4 and 9.4 × 10^4
same,Germ number after 24 h (carried out in duplicate),[2]; 250 mg/l,985 and 1080
same,Visual evaluation after 4 weeks,[1]; 50 mg/l,+
same,Visual evaluation after 4 weeks,[1]; 100 mg/l,+
same,Visual evaluation after 4 weeks,[1]; 250 mg/l,−
